Tests used:
AMARE [1] = experiment: Pre-emergence action against AMARE, 1280 g/ha; assay type: in vivo, Amaranthus retroflexus; conditions: scored visually after about 3 weeks vs untreated controls (100% = plants have died)
How it was run: (§1)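 Visual % scoring, roughly 3 weeks post-application, against untreated controls; 100% means plants died. Treatment went onto the soil covering sown seeds (sandy loam), as aqueous suspension or emulsion plus 0.5% additive.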

ECHCG [2] = experiment: Pre-emergence action against ECHCG, 1280 g/ha; assay type: in vivo, Echinochloa crus-galli; conditions: visual scoring after about 3 weeks vs untreated controls, 100% = plants have died, 0% = like control plants
How it was run: as §1

ALOMY [3] = experiment: Post-emergence action against ALOMY, 1.28 kg/ha; assay type: in vivo, Alopecurus myosuroides; conditions: dosage 1280 g/ha, visual rating about 3 weeks after treatment vs untreated controls
How it was run: (§2)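 Foliar application at the one-leaf stage: compound as WP or EC in water with 0.5% additive, sprayed at 600 L/ha. Plants are kept about 3 weeks in the greenhouse, then % herbicidal action is estimated visually (100% = death).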

SETVI [4] = experiment: Post-emergence action against SETVI, 1.28 kg/ha; assay type: in vivo, Setaria viridis; conditions: dosage 1280 g/ha, visual rating about 3 weeks after treatment vs untreated controls
How it was run: as §2

VERPE [5] = experiment: Post-emergence action against VERPE, 1.28 kg/ha; assay type: in vivo, Veronica persica; conditions: dosage 1280 g/ha, visual rating about 3 weeks after treatment vs untreated controls (100% = plants died)
How it was run: as §2

KCHSC = experiment: Post-emergence action against KCHSC, 1.28 kg/ha; assay type: in vivo, Bassia scoparia; conditions: dosage 1280 g/ha, visual rating about 3 weeks after treatment vs untreated controls (100% = plants died)
How it was run: as §2

ABUTH [6] = experiment: Pre-emergence action against ABUTH, 1280 g/ha; assay type: in vivo, Abutilon theophrasti; conditions: scored visually after about 3 weeks vs untreated controls (100% = plants have died)
Excerpt: 1. Pre-Emergence Herbicidal Effect and Crop Plant Compatibility a) Seeds of mono- and dicotyledonous weed plants are placed in plastic pots in sandy loam soil (doubly sown with one species each of mono- or dicotyledonous weed plants per pot) and covered with soil. The compounds of the invention, formulated in the form of wettable powders (WP) or as emulsion concentrates (EC), are then applied onto the surface of the covering soil as aqueous suspension or emulsion with addition of 0.5% additive at a water application rate equivalent to 600 litres per hectare. After the treatment, the pots are placed in a greenhouse and kept under good growth conditions for the trial plants. After about 3 weeks, the effect of the preparations is scored visually in comparison with untreated controls as percentages. For example, 100% activity=the plants have died, 0% activity=like control plants. 1. Pre-Emergence Effectiveness Tables 1 to 12 below show the effects of selected compounds of the general formula (I) according to Tables 1 and 2 on various harmful plants and at an application rate corresponding to 1280 g/ha, which were obtained by the experimental procedure mentioned above.

LOLRI [7] = experiment: Pre-emergence action against LOLRI, 1280 g/ha; assay type: in vivo, Lolium rigidum; conditions: visual scoring after about 3 weeks vs untreated controls, 100% = plants have died, 0% = like control plants
How it was run: as §1

MATIN [8] = experiment: Pre-emergence action against MATIN, 1280 g/ha; assay type: in vivo, Tripleurospermum inodorum (Matricaria inodora); conditions: scored visually after about 3 weeks vs untreated controls (100% = plants have died)
How it was run: as §1

STEME [9] = experiment: Post-emergence action against STEME, 1.28 kg/ha; assay type: in vivo, Stellaria media; conditions: dosage 1280 g/ha, visual rating about 3 weeks after treatment vs untreated controls (100% = plants died)
How it was run: as §2

AMARE [10] = experiment: Post-emergence action against AMARE, 1.28 kg/ha; assay type: in vivo, Amaranthus retroflexus; conditions: dosage 1280 g/ha, visual rating about 3 weeks after treatment vs untreated controls (100% = plants died)
How it was run: as §2

DIGSA [11] = experiment: Pre-emergence action against DIGSA, 1280 g/ha; assay type: in vivo, Digitaria sanguinalis; conditions: visual scoring after about 3 weeks vs untreated controls, 100% = plants have died, 0% = like control plants
How it was run: as §1

ABUTH [12] = experiment: Post-emergence action against ABUTH, 1.28 kg/ha; assay type: in vivo, Abutilon theophrasti; conditions: dosage 1280 g/ha, visual rating about 3 weeks after treatment vs untreated controls (100% = plants died)
How it was run: as §2

ALOMY [13] = experiment: Pre-emergence action against ALOMY, 1280 g/ha; assay type: in vivo, Alopecurus myosuroides; conditions: visual scoring after about 3 weeks vs untreated controls, 100% = plants have died, 0% = like control plants
How it was run: as §1

SETVI [14] = experiment: Pre-emergence action against SETVI, 1280 g/ha; assay type: in vivo, Setaria viridis; conditions: visual scoring after about 3 weeks vs untreated controls, 100% = plants have died, 0% = like control plants
How it was run: as §1

ECHCG [15] = experiment: Post-emergence action against ECHCG, 1.28 kg/ha; assay type: in vivo, Echinochloa crus-galli; conditions: dosage 1280 g/ha, visual rating about 3 weeks after treatment vs untreated controls
How it was run: as §2

LOLRI [16] = experiment: Post-emergence action against LOLRI, 1.28 kg/ha; assay type: in vivo, Lolium rigidum; conditions: dosage 1280 g/ha, visual rating about 3 weeks after treatment vs untreated controls
How it was run: as §2

VERPE [17] = experiment: Pre-emergence action against VERPE, 1280 g/ha; assay type: in vivo, Veronica persica; conditions: scored visually after about 3 weeks vs untreated controls (100% = plants have died)
How it was run: as §1

STEME [18] = experiment: Pre-emergence action against STEME, 1280 g/ha; assay type: in vivo, Stellaria media; conditions: scored visually after about 3 weeks vs untreated controls (100% = plants have died)
How it was run: as §1

POAAN [19] = experiment: Pre-emergence action against POAAN, 1280 g/ha; assay type: in vivo, Poa annua; conditions: visual scoring after about 3 weeks vs untreated controls, 100% = plants have died, 0% = like control plants
How it was run: as §1

POAAN [20] = experiment: Post-emergence action against POAAN, 1.28 kg/ha; assay type: in vivo, Poa annua; conditions: dosage 1280 g/ha, visual rating about 3 weeks after treatment vs untreated controls
How it was run: as §2

DIGSA [21] = experiment: Post-emergence action against DIGSA, 1.28 kg/ha; assay type: in vivo, Digitaria sanguinalis; conditions: dosage 1280 g/ha, visual rating about 3 weeks after treatment vs untreated controls
How it was run: as §2

MATIN [22] = experiment: Post-emergence action against MATIN, 1.28 kg/ha; assay type: in vivo, Tripleurospermum inodorum (Matricaria inodora); conditions: dosage 1280 g/ha, visual rating about 3 weeks after treatment vs untreated controls (100% = plants died)
How it was run: as §2

| SMILES | Pre-emergence action against AMARE (AMARE [1]) [%] | Pre-emergence action against ECHCG (ECHCG [2]) [%] | Post-emergence action against ALOMY (ALOMY [3]) [%] | Post-emergence action against SETVI (SETVI [4]) [%] | Post-emergence action against VERPE (VERPE [5]) [%] | Post-emergence action against KCHSC (KCHSC) [%] | Pre-emergence action against ABUTH (ABUTH [6]) [%] | Pre-emergence action against LOLRI (LOLRI [7]) [%] | Pre-emergence action against MATIN (MATIN [8]) [%] | Post-emergence action against STEME (STEME [9]) [%] | Post-emergence action against AMARE (AMARE [10]) [%] | Pre-emergence action against DIGSA (DIGSA [11]) [%] | Pre-emergence action against ALOMY (ALOMY [13]) [%] | Pre-emergence action against SETVI (SETVI [14]) [%] | Pre-emergence action against VERPE (VERPE [17]) [%] | Pre-emergence action against STEME (STEME [18]) [%] | Pre-emergence action against POAAN (POAAN [19]) [%] | Post-emergence action against POAAN (POAAN [20]) [%] | Post-emergence action against DIGSA (DIGSA [21]) [%] | Post-emergence action against MATIN (MATIN [22]) [%] | further results |
| --- | --- | --- | --- | --- | --- | --- | --- | --- | --- | --- | --- | --- | --- | --- | --- | --- | --- | --- | --- | --- | --- |
| COC(=O)COc1nn(-c2c(F)cccc2F)c(-c2ccc(F)nc2)c1C#N [VII-061] | 100 | 100 | 100 | 90 | 100 | 90 | 90 | 100 | 100 | 100 | 90 | 100 | 100 | 100 | 100 | 100 | 100 | 100 | 100 | 100 | Post-emergence action against ABUTH (ABUTH [12]): 90%; Post-emergence action against ECHCG (ECHCG [15]): 100%; Post-emergence action against LOLRI (LOLRI [16]): 100% |
| CC(Oc1nn(-c2ccccc2F)c(-c2ccc(F)nc2)c1C(F)(F)F)C(=O)O (stereo not drawn) [VII-106] | 100 | 100 | 100 | 90 | 100 | 100 | 90 | 100 | 90 | 100 |  | 100 | 100 | 100 | 100 | 100 | 100 | 100 | 100 | 90 | Post-emergence action against ECHCG (ECHCG [15]): 90% |
| COC(=O)[C@@H](C)Oc1nn(-c2ccccc2F)c(-c2cnc(F)c(F)c2)c1Br [VII-149] | 100 |  | 100 |  | 90 |  | 90 | 100 | 90 |  | 100 | 100 | 100 | 90 | 100 | 100 | 100 | 100 | 100 | 100 | Post-emergence action against LOLRI (LOLRI [16]): 100% |

Source: patent US12180187B2, “1-phenyl-5-azinylpyrazolyl-3-oxyalkyl acids and their use for controlling unwanted plant growth” (BAYER AKTIENGESELLSCHAFT, priority 2019, dated 2024)
